Assay results taken from ChEMBL document CHEMBL1914283, “Synthesis and evaluation of pyridazinone-phenethylamine derivatives as selective and orally bioavailable histamine H3 receptor antagonists with robust wake-promoting activity” (Bioorg Med Chem Lett, 2011).
One block for each compound: values may come before it. Calls of active or inactive are those of the source. The rule behind the calls is not given here.

How the values were obtained:
Histamine H3 receptor [1] = biological target: Histamine H3 receptor (Rattus norvegicus, UniProt Q9QYN8); assay: Displacement of [3H]NAMH from rat H3R expressed in CHO cells; type: cell-based
Histamine H3 receptor [2] = biological target: T1, Histamine H3 receptor (Homo sapiens, UniProt Q9Y5N1); assay: Displacement of [3H]NAMH from human H3R expressed in CHO cells; type: cell-based
Target sequence in this assay (Q9Y5N1 whole entry): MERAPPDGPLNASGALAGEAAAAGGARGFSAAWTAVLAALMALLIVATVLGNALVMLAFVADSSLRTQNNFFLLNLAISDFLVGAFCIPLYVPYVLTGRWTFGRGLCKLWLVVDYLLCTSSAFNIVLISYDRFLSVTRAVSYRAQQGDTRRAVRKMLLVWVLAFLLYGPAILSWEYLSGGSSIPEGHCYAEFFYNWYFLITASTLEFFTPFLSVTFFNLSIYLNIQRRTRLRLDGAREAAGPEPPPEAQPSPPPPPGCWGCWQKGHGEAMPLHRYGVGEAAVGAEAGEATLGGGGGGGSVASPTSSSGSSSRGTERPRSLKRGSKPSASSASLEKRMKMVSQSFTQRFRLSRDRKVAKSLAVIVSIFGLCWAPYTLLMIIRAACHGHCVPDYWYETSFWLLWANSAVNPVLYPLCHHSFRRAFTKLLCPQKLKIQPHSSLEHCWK

[3] = AUC (0 to infinity) in rat at 5 mg/kg, po; type: ADME, organism-based; parameters: time infinity, dose 5 mg/kg, route oral; settings: plasma
[4] = biological target: Histamine H1 receptor (Homo sapiens) (UniProt P35367); assay: Inhibition of human H1R at 10 uM
Rattus norvegicus [5] = assay: Wake promoting activity in Sprague-Dawley rat EEG/EMG model assessed as increase in cumulative wake time at 30 mg/kg, ip relative to vehicle treated animals; type: functional; settings: route intraperitoneal
Rattus norvegicus [6] = assay: Wake promoting activity in Sprague-Dawley rat EEG/EMG model assessed as cumulative wake time at 30 mg/kg, ip after 7 hrs; type: functional; settings: route intraperitoneal
Rattus norvegicus [7] = assay: Wake promoting activity in Sprague-Dawley rat EEG/EMG model assessed as cumulative wake time at 30 mg/kg, ip; type: functional; settings: route intraperitoneal
[8] = biological target: Histamine H4 receptor (Homo sapiens) (UniProt Q9H3N8); assay: Inhibition of human H4R at 10 uM
Rattus norvegicus [9] = assay: Wake promoting activity in Sprague-Dawley rat EEG/EMG model assessed as increase in cumulative wake time at 30 mg/kg, ip up to 4.5 hrs; type: functional, organism-based; parameters: dose 30 mg/kg
[10] = Metabolic stability in mouse liver microsomes assessed as half life; type: ADME, Microsome
Cytochrome P450 2D6 = Cytochrome P450 2D6 (Homo sapiens, UniProt P10635); assay: Inhibition of CYP2D6; type: ADME
Rattus norvegicus [11] = assay: Toxicity in Sprague-Dawley rat EEG/EMG model assessed as EEG abnormality at 3 to 30 mg/kg, ip; type: organism-based; parameters: dose 3-30 mg/kg, route intraperitoneal; settings: in vivo
Rattus norvegicus [12] = assay: Inhibition of R-alpha-methylhistamine-induced water intake in ip dosed rat dipsogenia model; type: functional
Rattus norvegicus [13] = assay: Wake promoting activity in Sprague-Dawley rat EEG/EMG model assessed as sleep rebound at 3 to 30 mg/kg, ip; type: functional, organism-based
Cytochrome P450 2C9 = Cytochrome P450 2C9 (Homo sapiens, UniProt P11712); assay: Inhibition of CYP2C9; type: ADME
Cytochrome P450 2C19 = Cytochrome P450 2C19 (Homo sapiens, UniProt P33261); assay: Inhibition of CYP2C19; type: ADME
Rattus norvegicus [14] = assay: Wake promoting activity in Sprague-Dawley rat EEG/EMG model assessed as cumulative wake time at 10 mg/kg, ip; type: functional; settings: route intraperitoneal
Rattus norvegicus [15] = assay: Wake promoting activity in Sprague-Dawley rat EEG/EMG model assessed as increase in cumulative wake time at 30 mg/kg, ip up to 4 hrs; type: functional; settings: route intraperitoneal
Cytochrome P450 3A4 = Cytochrome P450 3A4 (Homo sapiens, UniProt P08684); assay: Inhibition of CYP3A4; type: ADME
[16] = Metabolic stability in human liver microsomes assessed as half life; type: ADME, Microsome
[17] = Volume of distribution in rat at 1 mg/kg, iv; type: ADME, organism-based; parameters: dose 1 mg/kg, route intravenous; settings: in vivo
Cytochrome P450 1A2 = biological target: T2, Cytochrome P450 1A2 (Homo sapiens, UniProt P05177); assay: Inhibition of CYP1A2; type: ADME
T2 sequence (P05177 whole entry): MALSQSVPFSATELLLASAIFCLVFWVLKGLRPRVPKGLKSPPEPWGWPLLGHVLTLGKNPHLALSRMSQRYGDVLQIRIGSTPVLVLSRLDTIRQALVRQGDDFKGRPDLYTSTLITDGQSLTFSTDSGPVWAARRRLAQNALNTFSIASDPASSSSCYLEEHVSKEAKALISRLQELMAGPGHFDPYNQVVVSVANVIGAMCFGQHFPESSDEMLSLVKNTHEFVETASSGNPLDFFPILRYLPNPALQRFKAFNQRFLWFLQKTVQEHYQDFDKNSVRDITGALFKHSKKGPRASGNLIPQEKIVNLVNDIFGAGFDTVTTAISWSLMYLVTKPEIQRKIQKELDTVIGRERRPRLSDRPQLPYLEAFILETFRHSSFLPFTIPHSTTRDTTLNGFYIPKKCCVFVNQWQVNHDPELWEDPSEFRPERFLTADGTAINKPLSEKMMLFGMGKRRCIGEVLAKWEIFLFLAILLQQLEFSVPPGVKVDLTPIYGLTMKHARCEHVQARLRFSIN

[18] = Metabolic stability in dog liver microsomes assessed as half life; type: ADME, Canis lupus familiaris, Microsome
Histamine H3 receptor [19] = biological target: T1, Histamine H3 receptor; assay: Antagonist activity at human H3R expressed in CHO cells assessed as inhibition of R-alpha-methylhistamine-induced [35S]GTPgammaS binding; type: functional, cell-based
Target sequence in this assay (Q9Y5N1 whole entry): as the sequence (Q9Y5N1 whole entry) above

Rattus norvegicus [20] = assay: Wake promoting activity in ip dosed Sprague-Dawley rat EEG/EMG model assessed as cumulative wake time; type: functional, organism-based
[21] = Ratio of drug level from brain to plasma of rat at 10 mg/kg, ip after 1 hr; type: ADME, organism-based; parameters: dose 10 mg/kg, route intraperitoneal; settings: read-out: BPR
[22] = Clearance in rat at 1 mg/kg, iv; type: ADME, organism-based; parameters: dose 1 mg/kg, route intravenous; settings: in vivo
Histamine H3 receptor [23] = biological target: T1, Histamine H3 receptor; assay: Inverse agonist activity at human H3R expressed in CHO cells assessed as inhibition of R-alpha-methylhistamine-induced [35S]GTPgammaS binding; type: functional, cell-based
Target sequence in this assay (Q9Y5N1 whole entry): as the sequence (Q9Y5N1 whole entry) above

[24] = Half life in rat at 1 mg/kg, iv; type: ADME, organism-based; parameters: dose 1 mg/kg, route intravenous; settings: in vivo
[25] = biological target: Histamine H2 receptor (Homo sapiens) (UniProt P25021); assay: Inhibition of human H2R at 10 uM
[26] = Cmax in rat at 5 mg/kg, po; type: ADME, organism-based; parameters: dose 5 mg/kg, route oral; settings: in vivo
[27] = Oral bioavailability in rat at 5 mg/kg; type: ADME, organism-based; settings: in vivo
[28] = Metabolic stability in rat liver microsomes assessed as half life; type: ADME, Microsome
[29] = AUC (0 to infinity) in rat at 1 mg/kg, iv; type: ADME, organism-based; parameters: time infinity, dose 1 mg/kg, route intravenous; settings: plasma
Histamine H3 receptor [30] = biological target: T1, Histamine H3 receptor; assay: Antagonist activity at human H3R expressed in CHO cells assessed as inhibition of R-alpha-methylhistamine-induced [35S]GTPgammaS binding
Target sequence in this assay (Q9Y5N1 whole entry, looked up): as the sequence (Q9Y5N1 whole entry) above

Rattus norvegicus [31] = assay: Wake promoting activity in Sprague-Dawley rat EEG/EMG model assessed as sleep rebound at 3 to 30 mg/kg, ip up to 22 hrs; type: functional, organism-based
Rattus norvegicus [32] = assay: Wake promoting activity in Sprague-Dawley rat EEG/EMG model assessed as increase in cumulative wake time at 30 mg/kg, ip up to 7.5 hrs; type: functional, organism-based; parameters: dose 30 mg/kg
[33] = Aqueous solubility of the compound at pH 2; type: physicochemical; settings: buffer
[34] = Aqueous solubility of the compound at pH 7.4; type: physicochemical; settings: buffer

Histamine H3 receptor (Rattus norvegicus, UniProt Q9QYN8), sequence (Q9QYN8 whole entry): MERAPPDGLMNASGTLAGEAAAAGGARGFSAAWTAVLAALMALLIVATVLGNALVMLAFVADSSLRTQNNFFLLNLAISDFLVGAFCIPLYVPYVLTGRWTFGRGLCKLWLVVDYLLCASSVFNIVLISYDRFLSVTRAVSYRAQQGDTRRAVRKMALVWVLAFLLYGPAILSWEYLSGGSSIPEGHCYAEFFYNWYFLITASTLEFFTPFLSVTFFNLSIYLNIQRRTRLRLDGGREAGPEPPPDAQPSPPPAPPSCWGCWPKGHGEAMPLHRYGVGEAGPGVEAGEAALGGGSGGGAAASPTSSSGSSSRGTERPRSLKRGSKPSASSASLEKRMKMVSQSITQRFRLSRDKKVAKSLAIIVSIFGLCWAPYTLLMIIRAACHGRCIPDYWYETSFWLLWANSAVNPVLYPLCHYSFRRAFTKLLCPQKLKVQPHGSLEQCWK
Histamine H1 receptor (Homo sapiens), sequence (P35367 whole entry): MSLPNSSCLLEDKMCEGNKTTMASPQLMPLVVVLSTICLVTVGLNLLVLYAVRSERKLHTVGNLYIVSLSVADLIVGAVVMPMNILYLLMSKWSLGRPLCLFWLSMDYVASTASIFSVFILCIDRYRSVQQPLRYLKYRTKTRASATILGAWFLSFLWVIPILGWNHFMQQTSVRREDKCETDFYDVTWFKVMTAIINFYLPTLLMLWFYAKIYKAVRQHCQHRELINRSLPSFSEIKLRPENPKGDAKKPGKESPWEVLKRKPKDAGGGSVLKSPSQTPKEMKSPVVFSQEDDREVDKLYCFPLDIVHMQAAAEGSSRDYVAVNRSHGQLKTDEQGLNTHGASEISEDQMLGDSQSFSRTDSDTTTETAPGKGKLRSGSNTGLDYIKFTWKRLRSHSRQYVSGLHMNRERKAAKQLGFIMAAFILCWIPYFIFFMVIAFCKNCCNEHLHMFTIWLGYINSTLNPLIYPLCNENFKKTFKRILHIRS
Histamine H2 receptor (Homo sapiens), sequence (P25021 whole entry): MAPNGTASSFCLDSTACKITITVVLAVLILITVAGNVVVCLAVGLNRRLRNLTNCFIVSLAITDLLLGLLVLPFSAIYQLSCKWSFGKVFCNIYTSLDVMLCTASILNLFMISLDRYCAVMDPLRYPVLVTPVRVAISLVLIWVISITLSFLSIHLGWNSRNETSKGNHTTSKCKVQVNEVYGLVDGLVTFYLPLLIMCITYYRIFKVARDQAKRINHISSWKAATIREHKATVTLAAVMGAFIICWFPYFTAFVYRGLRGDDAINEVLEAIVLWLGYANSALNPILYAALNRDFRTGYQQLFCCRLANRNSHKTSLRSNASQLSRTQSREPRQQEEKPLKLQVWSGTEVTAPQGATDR
Cytochrome P450 3A4, sequence (P08684 whole entry): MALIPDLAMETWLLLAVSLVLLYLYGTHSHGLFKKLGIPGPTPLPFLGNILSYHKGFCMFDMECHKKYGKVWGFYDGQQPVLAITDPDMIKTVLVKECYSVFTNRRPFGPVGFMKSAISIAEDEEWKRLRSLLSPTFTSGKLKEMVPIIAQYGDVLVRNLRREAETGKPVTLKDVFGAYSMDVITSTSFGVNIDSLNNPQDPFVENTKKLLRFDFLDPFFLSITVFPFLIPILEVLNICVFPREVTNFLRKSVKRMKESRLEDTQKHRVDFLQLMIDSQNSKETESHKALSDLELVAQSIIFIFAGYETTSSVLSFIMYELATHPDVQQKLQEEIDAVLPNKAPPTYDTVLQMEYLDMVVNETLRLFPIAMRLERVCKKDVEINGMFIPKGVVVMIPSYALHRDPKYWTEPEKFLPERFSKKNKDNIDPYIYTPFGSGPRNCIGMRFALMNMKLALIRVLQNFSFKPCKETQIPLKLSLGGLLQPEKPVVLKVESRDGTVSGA
Cytochrome P450 2C9, sequence (P11712 whole entry): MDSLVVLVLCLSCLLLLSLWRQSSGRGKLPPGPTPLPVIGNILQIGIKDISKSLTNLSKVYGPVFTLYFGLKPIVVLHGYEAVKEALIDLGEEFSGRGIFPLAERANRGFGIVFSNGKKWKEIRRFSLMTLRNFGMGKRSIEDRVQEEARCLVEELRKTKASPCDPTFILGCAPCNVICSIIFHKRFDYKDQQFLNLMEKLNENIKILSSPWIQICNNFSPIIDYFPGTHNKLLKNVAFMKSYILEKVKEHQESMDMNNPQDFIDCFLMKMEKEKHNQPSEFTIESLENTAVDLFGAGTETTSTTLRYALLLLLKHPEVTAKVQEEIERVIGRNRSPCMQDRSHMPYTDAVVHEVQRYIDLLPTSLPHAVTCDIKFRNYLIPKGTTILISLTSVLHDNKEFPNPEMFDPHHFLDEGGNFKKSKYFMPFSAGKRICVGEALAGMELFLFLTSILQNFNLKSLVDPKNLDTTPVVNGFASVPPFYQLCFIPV
Cytochrome P450 2C19, sequence (P33261 whole entry): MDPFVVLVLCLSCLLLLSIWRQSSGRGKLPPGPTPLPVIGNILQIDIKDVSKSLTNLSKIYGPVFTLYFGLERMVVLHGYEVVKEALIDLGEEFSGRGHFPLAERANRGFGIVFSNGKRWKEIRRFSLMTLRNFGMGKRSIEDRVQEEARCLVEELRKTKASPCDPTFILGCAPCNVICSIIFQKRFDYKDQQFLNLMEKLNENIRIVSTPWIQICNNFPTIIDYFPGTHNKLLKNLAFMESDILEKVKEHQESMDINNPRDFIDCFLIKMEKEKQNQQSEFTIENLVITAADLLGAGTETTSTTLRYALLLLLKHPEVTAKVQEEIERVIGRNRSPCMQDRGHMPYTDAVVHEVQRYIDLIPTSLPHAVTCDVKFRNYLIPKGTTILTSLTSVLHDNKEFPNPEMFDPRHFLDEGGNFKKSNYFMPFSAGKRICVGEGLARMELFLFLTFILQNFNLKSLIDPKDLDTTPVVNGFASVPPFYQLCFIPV
Cytochrome P450 2D6, sequence (P10635 whole entry): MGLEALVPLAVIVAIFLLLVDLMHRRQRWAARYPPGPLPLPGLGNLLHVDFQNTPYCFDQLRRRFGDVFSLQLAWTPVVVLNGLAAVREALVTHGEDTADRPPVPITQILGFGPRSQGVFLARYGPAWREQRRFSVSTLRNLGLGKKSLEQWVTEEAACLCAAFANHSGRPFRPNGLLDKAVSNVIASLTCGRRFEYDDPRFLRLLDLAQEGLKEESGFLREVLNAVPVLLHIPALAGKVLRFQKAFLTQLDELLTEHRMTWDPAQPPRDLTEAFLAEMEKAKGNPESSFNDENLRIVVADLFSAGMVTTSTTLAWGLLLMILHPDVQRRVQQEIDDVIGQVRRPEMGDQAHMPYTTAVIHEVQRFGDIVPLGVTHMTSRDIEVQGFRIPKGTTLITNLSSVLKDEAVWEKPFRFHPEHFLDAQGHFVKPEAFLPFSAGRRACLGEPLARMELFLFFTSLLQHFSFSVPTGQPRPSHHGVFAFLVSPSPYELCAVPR

Ki (Histamine H3 receptor [1]): 0.135 µM
Ki (Histamine H3 receptor [2]): 0.083 µM
SMILES: Cn1nc(-c2ccc(CCN3CCCC3)cc2)ccc1=O

Ki (Histamine H3 receptor [1]): 0.042 µM
Ki (Histamine H3 receptor [2]): 0.034 µM
SMILES: C[C@@H]1CCCN1CCc1ccc(-c2ccc(=O)n(-c3ccccc3)n2)cc1

Ki (Histamine H3 receptor [1]): 0.242 µM
Ki (Histamine H3 receptor [2]): 0.047 µM
SMILES: C[C@@H]1CCCN1CCc1ccc(-c2ccc(=O)n(-c3ccccn3)n2)cc1

Ki (Histamine H3 receptor [1]): 0.018 µM
Ki (Histamine H3 receptor [2]): 0.005 µM
SMILES: C[C@@H]1CCCN1CCc1ccc(-c2ccc(=O)n(Cc3ccccc3)n2)cc1

Ki (Histamine H3 receptor [1]): 0.026 µM
Ki (Histamine H3 receptor [2]): 0.008 µM
SMILES: C[C@@H]1CCCN1CCc1ccc(-c2ccc(=O)n(-c3ccc(Cl)cc3)n2)cc1

AUC(0-inf) [3]: 28 ng·h/mL
inhibition [4]: < 30%
inhibition [8]: < 30%
Ki (Histamine H3 receptor [1]): 0.058 µM
half-life [10]: 25 min
IC50 (Cytochrome P450 2D6): > 30 µM
IC50 (Cytochrome P450 2C9): > 30 µM
IC50 (Cytochrome P450 2C19): > 30 µM
IC50 (Cytochrome P450 3A4): > 30 µM
half-life [16]: > 40 min
Vd [17]: 0.6 L/kg
IC50 (Cytochrome P450 1A2): > 30 µM
half-life [18]: > 40 min
Activity (Histamine H3 receptor [19]): Active
Ki (Histamine H3 receptor [2]): 0.007 µM
Kp at 1 h [21]: 6
clearance [22]: 12 mL/min/kg
EC50 (Histamine H3 receptor [23]): 0.002 µM
half-life [24]: 30 min
inhibition [25]: < 30%
Cmax [26]: 18 ng/mL
bioavailability [27]: < 1%
half-life [28]: 39 min
AUC(0-inf) [29]: 1650 ng·h/mL
Activity (Histamine H3 receptor [30]): Active
SMILES: C[C@@H]1CCCN1CCc1ccc(-c2ccc(=O)n(C)n2)cc1
Activity (Rattus norvegicus [5]): 68%
Time (Rattus norvegicus [6]): 200 min
Time (Rattus norvegicus [7]): 235 min
Activity (Rattus norvegicus [9]): Active
Activity (Rattus norvegicus [11]): Non-toxic
ED50 (Rattus norvegicus [12]): 0.07 mg/kg
inhibition (Rattus norvegicus [12]): Dose-dependent effect
Activity (Rattus norvegicus [13]): inactive
Time (Rattus norvegicus [14]): 161 min
Activity (Rattus norvegicus [15]): 98%
Time (Rattus norvegicus [20]): Dose-dependent effect

AUC(0-inf) [3]: 1730 ng·h/mL
inhibition [4]: < 30%
inhibition [8]: < 30%
Ki (Histamine H3 receptor [1]): 0.048 µM
half-life [10]: > 40 min
IC50 (Cytochrome P450 2D6): > 30 µM
IC50 (Cytochrome P450 2C9): > 30 µM
IC50 (Cytochrome P450 2C19): > 30 µM
IC50 (Cytochrome P450 3A4): > 30 µM
half-life [16]: > 40 min
Vd [17]: 4.8 L/kg
IC50 (Cytochrome P450 1A2): > 30 µM
half-life [18]: > 40 min
Activity (Histamine H3 receptor [19]): Active
Ki (Histamine H3 receptor [2]): 0.013 µM
solubility [33]: > 125 µg/mL
Kp at 1 h [21]: 11
clearance [22]: 21 mL/min/kg
EC50 (Histamine H3 receptor [23]): 0.0021 µM
half-life [24]: 138 min
inhibition [25]: < 30%
Cmax [26]: 255 ng/mL
bioavailability [27]: 27%
half-life [28]: > 40 min
AUC(0-inf) [29]: 1300 ng·h/mL
solubility [34]: > 125 µg/mL
Activity (Histamine H3 receptor [30]): Active
SMILES: C[C@@H]1CCCN1CCc1ccc(-c2ccc(=O)n(-c3ccc(F)cc3)n2)cc1
Activity (Rattus norvegicus [11]): Non-toxic
ED50 (Rattus norvegicus [12]): 0.02 mg/kg
inhibition (Rattus norvegicus [12]): Dose-dependent effect
Time (Rattus norvegicus [14]): 207 min
Activity (Rattus norvegicus [15]): 94%
Activity (Rattus norvegicus [31]): inactive
Activity (Rattus norvegicus [32]): Active

Ki (Histamine H3 receptor [1]): 0.007 µM
SMILES: C[C@@H]1CCCN1CCCOc1ccc(-c2ccc(=O)[nH]n2)cc1 [IRDABISANT]

Ki (Histamine H3 receptor [1]): 0.043 µM
Ki (Histamine H3 receptor [2]): 0.031 µM
SMILES: C[C@@H]1CCCN1CCc1ccc(-c2ccc(=O)[nH]n2)cc1
